In article PMC12036814 (Angewandte Chemie (International Ed. in English), 2025):
Like-named read-outs stand apart in the source and are kept apart here.

How the values were obtained:
[1] = system: AIFM1 knockout HEK293 cells; assay: Whole proteome analysis of AIFM1 knockout HEK293 cells; format: cell-based, human; parameters: dose or concentration left out as unconfirmed; conditions: […] μM, 3 days, versus vehicle-treated AIFM1 knockout cells
AIFM1 = molecular target: T1, AIFM1 (Homo sapiens, UniProt O95831); assay: Gel-based labelling of recombinant AIFM1 spiked into HEK-293 lysate; format: binding; conditions: excess compound added prior to probe
T1 construct: made in house; host or cells: E. coli Rosetta2
Description: AIFM1 expression & purification
Recombinant AIFM1 was expressed in a Rosetta2 E. coli strain. Bacterial growth was conducted in LB media supplemented with riboflavin and FAD shaking at 37°C and 180 rpm. Expression was induced with 1.0 mM IPTG and incubated for further 16 h before harvesting. Cells were harvested on ice in PBS and cell pellets stored at -20°C. Cells were lysed by French press and the 6xHis-tagged constructs were purified by Immobilized Metal Affinity Chromatography using Ni Sepharose (6 Fast Flow, GE). The centrifugation-cleared bacterial lysate was bound to beads in binding buffer (200 mM NaCl, 20 mM Tris/Cl pH = 7.4). […]
For gel-based fluorescence labelling of recombinant AIFM1, 1.7 µM recombinant protein was spiked - in to PBS or PBS -diluted HEK293 cell lysate ( 100 µg per reaction sample). […]
Click Master-mix (8 µL, 100 µM TAMRA-azide, Baseclick, Neuried, Germany, Cat# BCFA-008-10, 500 µM BTTAA ligand, Jena Bioscience, Jena, Germany, CLK -067, 1 mM CuSO4) was added and the CuAAC reaction started by addition of 2 µL of aq. sodium ascorbate (c end= 2 mM). […] Fluorescence scanning was performed using a Las-3000 fluorescence darkbox (Fujifilm, Minato, Japan) with a Fujinon VRF 43LMD Lens, 605DF40 filter and 520 nm EPI excitation wavelength and loading controls were developed with Coomassie stain afterwards. […]

NUDT1 = NUDT1 (Homo sapiens, UniProt P36639); assay: Thermal protein profiling (TPP) in intact HEK293 cells; format: cell-based; parameters: endogenous in cells; host or cells: HEK293; conditions: 1 h
Description: incubated in a thermoshaker (600 rpm, 16 h, 37 °C). The digest was stopped by adding 10 μL formic
acid (FA) and vortexing followed by centrifugation (12,000 ×g, 3 min, room temperature). 50 mg
SepPak C18 columns (Waters, Milford, USA, Cat# WAT054960) were equilibrated by gravity flow two
times with 1 mL acetonitrile and three times with 1 mL aqueous 0.1% trifluoroacetic acid (TFA) solution.
Subsequently, the samples were loaded by gravity flow, washed three times with 1 mL aqueous 0.1%
TFA solution and once with 0.5 mL aqueous 0.5% formic acid (F A) solution. Elution of peptides into
new 2.0 mL Protein LoBind Eppendorf tubes was performed by two times addition of 250 μL elution
buffer (80% acetonitrile, 0.5% FA) by gravity flow followed by 250 μL elution buffer by vacuum flow
until all liquid was eluted from the column. The eluates were lyophilized. Before MS measurement the
(brief centrifugation after each step).
Thermal protein profiling (TPP)
The experiment was performed similarly to TPP-TR experiments described by Franken et al. with minor
modifications.5 HEK293 cells were grown in 8 T175 flasks to approx. 80-90% confluency. Per replicate
volume of 0.1 N HCl as vehicle control. Per condition two replicates were used, leading to a total of 8
T175 flasks. The cells were washed with PBS, detached with accutase, the two flask per replicate […]

T1 sequence (O95831 102-613): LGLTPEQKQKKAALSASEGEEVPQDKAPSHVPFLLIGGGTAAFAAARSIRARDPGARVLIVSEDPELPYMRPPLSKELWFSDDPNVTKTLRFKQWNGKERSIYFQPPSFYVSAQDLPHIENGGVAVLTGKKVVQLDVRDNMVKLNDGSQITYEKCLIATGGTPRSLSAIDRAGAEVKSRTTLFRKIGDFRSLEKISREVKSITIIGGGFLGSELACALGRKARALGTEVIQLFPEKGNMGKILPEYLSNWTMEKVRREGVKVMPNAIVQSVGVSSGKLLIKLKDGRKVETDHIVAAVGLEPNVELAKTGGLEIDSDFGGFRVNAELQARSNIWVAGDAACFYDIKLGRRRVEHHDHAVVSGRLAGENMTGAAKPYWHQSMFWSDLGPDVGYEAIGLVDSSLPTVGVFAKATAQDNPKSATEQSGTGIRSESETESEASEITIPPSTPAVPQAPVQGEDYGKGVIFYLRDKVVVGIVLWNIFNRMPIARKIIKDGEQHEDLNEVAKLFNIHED

O=C(O)c1cn(C2CC2)c2cc(N3CCNCC3)c(F)cc2c1=O [Ciprofloxacin]
regulation of ETC subunits in AIFM1 knockout cells [1]: only minor additional alterations of ETC subunits
competition of Cipro P1 labelling of recombinant AIFM1 (AIFM1): strong reduction of signal intensity
ΔTm at 70 µM (NUDT1; read-out: ΔTm Rep. 1): 3.29 °C
ΔTm at 70 µM (NUDT1; read-out: ΔTm Rep. 2): 3.4 °C
